From patent publication US11332756B2, “RNA virus vectors carrying DAI and RIPK3” (Institute For Cancer Research, priority 2016, dated 2022)
*1 amine or outer side, *2 acyl side, *3 side chain or, on linkers, in order; H or OH if unused. Where a SMILES comes first, the peptide text is derived from it. Bridges are numbered along the chain shown (N, C = ends). Roman numbers before positions name the chains, in order. [ ]: non-standard residue; d: D form. The star is where a group is joined. Actinocin(9to1) = Cc1c2oc3c(C)ccc(C(=O)[*:1])c3nc-2c(C(=O)[*:2])c(N)c1=O; NMeV = CN[C@H](C(=O)O)C(C)C; Cbz = O=C(OCc1ccccc1)*; Sar = CNCC(=O)O; CH2F = FC*

What was measured:
[1] = tested on: wild-type MEFs infected with PR8; type: cell-based, murine
RIPK3-RIPK1 necrosome [2] = target: T1, RIPK3-RIPK1 necrosome (Mus musculus, UniProt Q9QZL0); assay: IAV-induced RIPK3-RIPK1 necrosome formation (RIPK3 immunoprecipitation) in MEFs; type: cell-based, murine; settings: for IAV (PR8)-induced RIPK3-RIPK1 necrosome / complex formation: PR8-infected MEFs, cells pre-treated with agent, RIPK3 immunoprecipitation
T1 construct: RIPK3 was immunoprecipitated from lysates of PR8-infected MEFs; endogenous in cells; host or cells: wild-type mouse embryo fibroblasts (MEFs)
Excerpt: (§1) IAV replication results in assembly of a RIPK3 complex containing RIPK1, FADD and MLKL. A molecular feature of RIPK3 dependent cell death is the stimulus-driven formation of a molecular complex called the necrosome, comprising as its core phosphorylated forms of RIPK3 and RIPK1, together with FADD and MLKL. From the necrosome, RIPK3 can activate both necroptosis and apoptosis, depending on target availability or RIPK3 activity. To test if IAV induced formation of a necrosome, RIPK3 was immunoprecipitated from lysates of PR8-infected MEFs, and immunoprecipitates were examined for the presence of slower-mobility forms of phosphorylated RIPK1. PR8 activated necrosome formation to a significant extent, as did the combination of PR8+zVAD (see, FIG. 4A, left and middle panels). Like TNF-α (see, FIG. 4A, right panels), IAV infection also drove the recruitment of FADD and MLKL into the RIPK3-RIPK1 necrosome.

RIPK3-RIPK1 necrosome [3] = target: T1, RIPK3-RIPK1 necrosome; assay: TNF-α-induced necrosome assembly in MEFs; type: cell-based, murine; settings: same doses as in PR8 experiment; not shown
Excerpt: as §1

IAV (PR8) = type: cell-based, Influenza A virus
[4] = tested on: mlkl−/− MEFs infected with PR8; type: cell-based, murine
[5] = tested on: ripk3−/− MEFs infected with PR8; type: cell-based, murine
[6] = tested on: apoptosis activated by TRAIL and cycloheximide in MEFs; assay: Apoptosis induced by TRAIL and cycloheximide; type: cell-based, murine; settings: TRAIL 2 μg/ml + CHX 250 ng/ml; anti-TRAIL-R2 10 μg/ml; zVAD same dose as in PR8 test
[7] = tested on: MLKL phosphorylation and cleavage of caspase 8; assay: Immunoblot of phosphorylated MLKL and cleaved caspase 8 in PR8-infected MEFs; type: cell-based, murine; settings: wild-type MEFs, zVAD 50 μM
[8] = tested on: TCZ-treated wild-type MEFs; type: cell-based, murine
[9] = tested on: ripk1−/− MEFs infected with PR8; type: cell-based, murine

T1 sequence (Q9QZL0 whole entry): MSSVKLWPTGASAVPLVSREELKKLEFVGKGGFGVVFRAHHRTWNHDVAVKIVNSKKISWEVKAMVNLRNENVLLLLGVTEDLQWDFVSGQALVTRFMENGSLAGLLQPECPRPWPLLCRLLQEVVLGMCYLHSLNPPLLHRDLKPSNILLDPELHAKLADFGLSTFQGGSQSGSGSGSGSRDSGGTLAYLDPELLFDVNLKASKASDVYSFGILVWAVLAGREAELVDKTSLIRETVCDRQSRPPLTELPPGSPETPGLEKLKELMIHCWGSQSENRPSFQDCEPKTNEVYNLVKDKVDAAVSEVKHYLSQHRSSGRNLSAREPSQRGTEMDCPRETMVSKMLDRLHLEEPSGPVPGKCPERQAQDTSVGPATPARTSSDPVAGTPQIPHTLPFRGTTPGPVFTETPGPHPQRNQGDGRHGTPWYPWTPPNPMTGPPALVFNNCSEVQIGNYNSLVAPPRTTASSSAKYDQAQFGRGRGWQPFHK

SMILES	protection of viability after PR8 infection, inhibitor alone [1]	IAV (PR8)-induced RIPK3-RIPK1 necrosome / complex formation (RIPK3-RIPK1 necrosome [2])	viral replication (IAV (PR8))	also measured
CC(C)(C)C(=O)N1N=CC[C@H]1c1ccccc1 [GSK'963]	did not have any discernible protective effect	inability of these agents to prevent IAV-driven necrosome formation		
C[C@@H]1C[C@@H]([C@H](O)CC2CC(=O)NC(=O)C2)C(=O)[C@@H](C)C1 [CHX, cycloheximide]		effectively prevented	effectively prevented	effect on TNF-α-induced necrosome assembly (RIPK3-RIPK1 necrosome [3]): Neither ActD nor CHX at these doses affected
Cc1onc(-c2ccccc2)c1C(=O)N1CCN(c2ccc([N+](=O)[O-])cc2Cl)CC1 [nucleozin]		potently blocked	abrogated viral replication	
Cc1c2oc3c(C)ccc(C(=O)N[C@@H]4C(=O)N[C@H](C(C)C)C(=O)N5CCC[C@H]5C(=O)N(C)CC(=O)N(C)[C@@H](C(C)C)C(=O)O[C@@H]4C)c3nc-2c(C(=O)N[C@@H]2C(=O)N[C@H](C(C)C)C(=O)N3CCC[C@H]3C(=O)N(C)CC(=O)N(C)[C@@H](C(C)C)C(=O)O[C@@H]2C)c(N)c1=O [ActD, Actinomycin D] (I: T[dV]P[Sar][NMeV] / II: T[dV]P[Sar][NMeV]; ester I:1-I:C, II:1-II:C; linker I:N-II:N via Actinocin(9to1))		effectively prevented	effectively prevented	effect on TNF-α-induced necrosome assembly (RIPK3-RIPK1 necrosome [3]): Neither ActD nor CHX at these doses affected
COC(=O)C[C@H](NC(=O)[C@H](C)NC(=O)[C@@H](NC(=O)OCc1ccccc1)C(C)C)C(=O)CF [zVAD, zVAD.fmk] (Cbz-Val-Ala-Asp(OMe)-CH2F)	did not protect			necrosome formation induced by the agent alone (RIPK3-RIPK1 necrosome [2]; zVAD alone, 25 μM, no virus): did not induce detectable necrosome formation; rescue from PR8-induced cell death in mlkl−/− MEFs [4]: fully rescued; viability of PR8-infected ripk3−/− MEFs [5]: remained mostly alive; protection against apoptosis induced by TRAIL and cycloheximide [6]: prevented apoptosis; IAV-induced cleavage of caspase 8 [7]: inhibited
CC(C)S(=O)(=O)c1ccc2nccc(Nc3ccc4scnc4c3)c2c1 [GSK'872]	failed to prevent PR8-induced cell death	blocked PR8-induced necrosome assembly		protection against TNF-α-induced necroptosis / cell death [8]: fully protective; protection from PR8-induced cell death in ripk1−/− MEFs [9]: almost-fully protected
CN1C(=O)[C@@H](NC(=O)c2cc(Cc3ccccc3)on2)COc2ccccc21 [GSK'481]	did not have any discernible protective effect	inability of these agents to prevent IAV-driven necrosome formation		
CC[C@H](C)[C@H](NC(=O)OCc1ccccc1)C(=O)N[C@@H](CCC(=O)OC)C(=O)N[C@H](C(=O)N[C@@H](CC(=O)OC)C(=O)CF)[C@@H](C)O [zIETD, zIETD.fmk] (Cbz-IE(OMe)TD(OMe)-CH2F)				protection against PR8 compared with zVAD [4]: less protection against PR8 than zVAD; rescue from PR8-induced cell death in mlkl−/− MEFs [4]: significant protection
CN1C(=O)C(Cc2c[nH]c3ccccc23)NC1=S (stereo not drawn) [Nec-1, Necrostatin 1]	did not have any discernible protective effect	inability of these agents to prevent IAV-driven necrosome formation		
Cc1cc(-c2cnc(N)c3c(-c4ccc5scnc5c4)csc23)n(C)n1 [GSK'843]	failed to prevent PR8-induced cell death	blocked PR8-induced necrosome assembly		protection against TNF-α-induced necroptosis / cell death [8]: fully protective; protection from PR8-induced cell death in ripk1−/− MEFs [9]: almost-fully protected
